The numbers were not newly measured in patent US20030103955A1 (priority 2000, published 2003), which cites them from elsewhere.

In data set [1] the test system is arthritis induced by adjuvant. Particulars: compared with aspirin.
A further data set has as its system cycloxygenase. The following applies: with reduction of production of tissue prostaglandines PGF2 and PGE2.
The conditions of data set [2]: octanol/buffer phosphate, ph=7.4.

For the molecule `O=C(O)Cc1ccccc1Nc1c(Cl)cccc1Cl` [Diclofenac], the anti-inflammatory effect result in data set [1] is recorded as “higher than that of aspirin”. Moreover, in the data set with cycloxygenase, the activity of cycloxygenase result was “inhibits the activity of cycloxygenase”. Moreover, the partition coefficient in data set [2] is 13.0.
